# Reference: patent US20090264375A1, “INTRAOCULAR IRRIGATING SOLUTIONS AND METHODS FOR TREATING CORNEAL EDEMA” (ALCON RESEARCH, LTD., priority 2007, published 2009)
# Test: GSSG content after autoclaving at F0=8
# Type: physicochemical
# Details: 0.4% histidine in reconstituted BSS PLUS, autoclaved
# Source text: The composition of reconstituted BSS PLUS® Sterile Intraocular Irrigating Solution is shown below in Table 1. The reconstituted product was used as a control solution. A sample of the reconstituted product was then spiked with 0.4% histidine to form the experimental solution. The control solution and the experimental solution were then each divided into two replicates each. The pH of one control and one experimental replicate was then adjusted to pH 6.8 and the pH of the other replicate was adjusted to pH 7.4. Both sets of the solutions were then autoclaved at F0=8. After autoclaving, GSSG contents in all the solutions were determined and the results are tabulated in Table 2 as percent GSSG remaining of the label claim in BSS PLUS® Sterile Intraocular Irrigating Solution.
# All of the above solutions were autoclaved in the same cycle. However, in this particular experiment, the sterilizer used was not capable of finely regulating F0 and thus significant degradation of GSSG occurred.
compound,measurement,value
N[C@@H](Cc1c[nH]cn1)C(=O)O [histidine],Effect on GSSG stability in solution,stabilizes GSSG in solution
